Reference: ChEMBL document CHEMBL4715775, “Synthesis and structure-activity relationships of 1-benzylindane derivatives as selective agonists for estrogen receptor beta” (Bioorg Med Chem, 2016)

Experiments:
Estrogen receptor beta = Estrogen receptor beta (Homo sapiens, UniProt Q92731)
Description: Agonist activity at human ERbeta receptor expressed in HEK293T cells transfected with pGL4.27-(ERE)3-Luc assessed as transcriptional activation measured after 16 hrs by Dual-Glo luciferase assay

Estrogen receptor [1] = molecular target: T1, Estrogen receptor (Homo sapiens, UniProt P03372)
T1 sequence (P03372 whole entry): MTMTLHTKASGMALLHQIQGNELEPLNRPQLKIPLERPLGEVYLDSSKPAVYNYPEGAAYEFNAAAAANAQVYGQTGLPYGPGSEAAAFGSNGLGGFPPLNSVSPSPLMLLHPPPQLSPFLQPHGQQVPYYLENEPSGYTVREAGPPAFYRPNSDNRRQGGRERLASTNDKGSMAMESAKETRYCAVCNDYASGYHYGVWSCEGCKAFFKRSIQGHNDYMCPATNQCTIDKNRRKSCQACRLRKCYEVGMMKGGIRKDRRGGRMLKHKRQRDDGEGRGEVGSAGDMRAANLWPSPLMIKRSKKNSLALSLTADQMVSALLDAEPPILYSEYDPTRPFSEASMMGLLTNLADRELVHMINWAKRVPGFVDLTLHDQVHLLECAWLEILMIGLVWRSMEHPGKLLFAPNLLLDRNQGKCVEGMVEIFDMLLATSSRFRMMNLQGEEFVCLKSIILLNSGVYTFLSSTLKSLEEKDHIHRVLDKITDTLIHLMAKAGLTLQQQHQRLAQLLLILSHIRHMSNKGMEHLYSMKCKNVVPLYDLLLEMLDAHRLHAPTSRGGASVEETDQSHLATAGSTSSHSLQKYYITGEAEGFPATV
Description: Agonist activity at human ERalpha receptor expressed in HEK293T cells transfected with pGL4.27-(ERE)3-Luc assessed as transcriptional activation measured after 16 hrs by Dual-Glo luciferase assay

Estrogen receptor [2] = molecular target: T1, Estrogen receptor; test: Agonist activity at human ERalpha receptor expressed in HEK293T cells transfected with pGL4.27-(ERE)3-Luc assessed as transcriptional activation at 10 uM measured after 16 hrs by Dual-Glo luciferase assay relative to 17beta-estradiol; assay type: cell-based

Sequence of Estrogen receptor beta (Q92731 whole entry): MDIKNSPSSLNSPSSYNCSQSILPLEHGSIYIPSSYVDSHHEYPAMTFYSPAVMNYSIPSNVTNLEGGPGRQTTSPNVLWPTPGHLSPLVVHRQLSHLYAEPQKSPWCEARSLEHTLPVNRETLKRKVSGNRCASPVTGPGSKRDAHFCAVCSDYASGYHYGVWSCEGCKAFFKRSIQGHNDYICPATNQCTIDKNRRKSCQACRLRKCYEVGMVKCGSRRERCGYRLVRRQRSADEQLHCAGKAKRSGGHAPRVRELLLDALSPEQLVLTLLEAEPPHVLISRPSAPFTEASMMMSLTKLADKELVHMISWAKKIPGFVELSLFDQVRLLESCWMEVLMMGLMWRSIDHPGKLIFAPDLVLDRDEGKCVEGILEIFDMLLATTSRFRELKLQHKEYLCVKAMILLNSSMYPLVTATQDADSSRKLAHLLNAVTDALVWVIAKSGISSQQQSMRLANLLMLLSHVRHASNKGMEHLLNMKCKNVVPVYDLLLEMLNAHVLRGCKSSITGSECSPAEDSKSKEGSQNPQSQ

Structure (SMILES) | EC50 (Estrogen receptor beta) | EC50 (Estrogen receptor [1]) | Activity (Estrogen receptor [2])
CCC(c1ccc(O)cc1)C1CCc2cc(O)ccc21 (centres undefined) | 0.1 nM | – | –
Oc1cccc(CC2CCc3cc(O)ccc32)c1 (centres undefined) | 32.5 nM | 3090 nM | –
Cc1cc(O)ccc1CC1(C#N)CCc2cc(O)ccc21 (centres undefined) | 0.48 nM | 950 nM | –
Oc1ccc(CC2CCCc3cc(O)ccc32)cc1 (centres undefined) | 0.18 nM | 102 nM | –
N#CC1(Cc2ccc(O)cc2Cl)CCc2cc(O)ccc21 (centres undefined) | 0.05 nM | – | –
CCC1(Cc2ccc(O)cc2)CCc2cc(O)ccc21 (centres undefined) | 0.36 nM | 116 nM | –
N#CCC1(Cc2ccc(O)cc2)CCc2cc(O)ccc21 (centres undefined) | 3.05 nM | – | –
CCCC1(Cc2ccc(O)cc2)CCc2cc(O)ccc21 (centres undefined) | – | 169 nM | –
CCCCC1(Cc2ccc(O)cc2)CCc2cc(O)ccc21 (centres undefined) | 6.59 nM | – | 42%
Oc1ccc(CC2CCc3c(O)cccc32)cc1 (centres undefined) | 72.4 nM | – | –
N#CC1(Cc2ccc(O)cc2F)CCc2cc(O)ccc21 (centres undefined) | 0.15 nM | 256 nM | –
N#C[C@@]1(Cc2ccc(O)cc2)CCc2cc(O)ccc21 | – | 2410 nM | –
N#CC1(Cc2ccc(O)c(F)c2)CCc2cc(O)ccc21 (centres undefined) | 0.91 nM | 1820 nM | –
CC1(Cc2ccc(O)cc2)CCc2cc(O)ccc21 (centres undefined) | – | 481 nM | –
Oc1ccc(CC2CCCCc3cc(O)ccc32)cc1 (centres undefined) | 0.15 nM | 123 nM | –
Cc1cc(CC2(C#N)CCc3cc(O)ccc32)ccc1O (centres undefined) | 10.7 nM | – | 2%
Oc1ccc(CC2CCc3ccc(O)cc32)cc1 (centres undefined) | 25.9 nM | 2110 nM | –
N#C[C@]1(Cc2ccc(O)cc2)CCc2cc(O)ccc21 | – | 3020 nM | –
N#CC1(Cc2ccc(O)c(Cl)c2)CCc2cc(O)ccc21 (centres undefined) | 11.6 nM | – | 7%
Oc1ccc(CCc2ccc(O)cc2)cc1 | – | – | 47%
N#CC1(Cc2ccc(O)cc2)CCc2cc(O)ccc21 (racemic) | – | 2790 nM | –
CCC(Cc1ccc(O)cc1)c1ccc(O)cc1 (centres undefined) [ISOBUTESROL] | 0.23 nM | 185 nM | –
